Assay: Contact of acid solutions with human skin
Settings: solution with a pH of less than 0.5

O=S(=O)(O)O [sulfuric acid]
irritation of a hand put into the solution: an irritation would occur

Reference: patent US9005673B2, “Preservative and additive for food and feed” (priority 2005, dated 2015)
